Measurements from the supplement of paper PMC7840683.
± gives the standard deviation of the averaged measurements.

System: HepaRG
Assay: LDH release cytotoxicity, % of total lysis control; higher = more cytotoxic
Details: 48 h
In short: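 Eight-point half-log series of test chemicals, the highest at 100 µM, were given in duplicate for 48 h to single-lot HepaRG cells on collagen I-coated 96-well plates in serum-free induction medium with 0.5% DMSO. A Tecan Safire read resorufin fluorescence from CytoTox-ONE as a measure of LDH in 50 µL spent medium, with 0.1% Triton X in total lysis wells. Percent cytotoxicity was normalized to on-plate vehicle and total lysis controls and averaged over the duplicates.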

O=C(O)C(F)(F)C(F)(F)C(F)(F)C(F)(F)C(F)(F)C(F)(F)C(F)(F)F [Perfluorooctanoic acid]
Details | LDH release cytotoxicity [%]
0.03162 µM | -0.867 ± 0.091
0.1 µM | -1.32 ± 0.54
0.3162278 µM | -1.53 ± 0.41
1 µM | -1.76 ± 0.67
3.16228 µM | -0.724 ± 0.56
10 µM | -1.14 ± 0.49
31.6228 µM | -1.29 ± 0.37
100 µM | 1.94 ± 1

c1ccc2c(c1)ccc1ccccc12 [Phenanthrene]
Details | LDH release cytotoxicity [%]
0.03162 µM | -0.492 ± 0.39
0.1 µM | -0.112 ± 0.47
0.3162278 µM | -1.07 ± 0.35
1 µM | -1.03 ± 0.62
3.16228 µM | -1.55 ± 0.095
10 µM | -0.467 ± 0.087
31.6228 µM | -0.00782 ± 0.7
100 µM | 0.23 ± 0.29

CCCOCC(=Nc1ccc(Cl)cc1C(F)(F)F)n1ccnc1 [Triflumizole]
Details | LDH release cytotoxicity [%]
0.03162 µM | -0.709 ± 0.69
0.1 µM | -1.15 ± 0.39
0.3162278 µM | -0.687 ± 0.077
1 µM | -0.497 ± 0.18
3.16228 µM | -0.543 ± 1
10 µM | -0.414 ± 0.008
31.6228 µM | -0.332 ± 0.2
100 µM | 0.335 ± 0.21

COC(=O)C=C(C)OP(=O)(OC)OC [Mevinphos]
Details | LDH release cytotoxicity [%]
0.03162 µM | -1.49 ± 1.2
0.1 µM | -1.28 ± 0.3
0.3162278 µM | -0.769 ± 1.7
1 µM | -2.52 ± 0.67
3.16228 µM | -2.16 ± 0.68
10 µM | -0.179 ± 0.88
31.6228 µM | -1.3 ± 0.79
100 µM | 1.1 ± 2

CCC(C)C(=O)OC1CC(O)C=C2C=CC(C)C(CCC(O)CC(O)CC(=O)O)C21 (centres undefined) [Pravastatin sodium]
Details | LDH release cytotoxicity [%]
0.03162 µM | -0.512 ± 0.58
0.1 µM | -1.91 ± 0.093
0.3162278 µM | -0.491 ± 0.075
1 µM | -1.07 ± 0.62
3.16228 µM | -0.742 ± 0.055
10 µM | 0.11 ± 0.94
31.6228 µM | 0.155 ± 0.37
100 µM | 3.76 ± 0.56

CC1(C)CC(N=C=O)CC(C)(CN=C=O)C1 (centres undefined) [Isophorone diisocyanate]
Details | LDH release cytotoxicity [%]
0.03162 µM | -2.14 ± 0.59
0.1 µM | -2.6 ± 0.31
0.3162278 µM | -2.25 ± 1.1
1 µM | -2.1 ± 0.37
3.16228 µM | -1.35 ± 0.43
10 µM | -1.724 ± 0.015
31.6228 µM | -2.21 ± 0.73
100 µM | 0.405 ± 0.69

O=C(Nc1ccccc1)c1ccccc1I [Benodanil]
Details | LDH release cytotoxicity [%]
0.03162 µM | -1.25 ± 0.85
0.1 µM | -1.19 ± 1.3
0.3162278 µM | -1.59 ± 0.61
1 µM | -2.02 ± 0.61
3.16228 µM | -0.274 ± 0.0083
10 µM | 1.86 ± 0.57
31.6228 µM | 5.86 ± 1.2
100 µM | 12.4 ± 0.34

CCCCCCCCCCCCc1ccccc1S(=O)(=O)O [Sodium dodecylbenzenesulfonate]
Details | LDH release cytotoxicity [%]
0.03162 µM | -1.64 ± 0.19
0.1 µM | -2.37 ± 0.1
0.3162278 µM | -2.11 ± 0.97
1 µM | -2.14 ± 0.36
3.16228 µM | -1.89 ± 0.21
10 µM | -2.56 ± 1.3
31.6228 µM | -1.08 ± 0.42
100 µM | 49.9 ± 3.5

CC(C)(C)C(O)C(Cc1ccc(Cl)cc1)n1cncn1 (centres undefined) [Paclobutrazol]
Details | LDH release cytotoxicity [%]
0.03162 µM | -0.9138 ± 0.0047
0.1 µM | -1.5 ± 0.066
0.3162278 µM | -1.02 ± 0.15
1 µM | -1.49 ± 1.2
3.16228 µM | -1.96 ± 1
10 µM | -1.1 ± 0.17
31.6228 µM | -1.36 ± 0.77
100 µM | -0.278 ± 0.059

CCCOC(=O)c1ccc(C(=O)OCCC)nc1 [Dipropyl 2,5-pyridinedicarboxylate]
Details | LDH release cytotoxicity [%]
0.03305 µM | -4.74 ± 0.19
0.1045 µM | -5.46 ± 0.7
0.330458 µM | -5.78 ± 1.4
1.045 µM | -4.98 ± 2.6
3.30458 µM | -5.75 ± 0.92
10.45 µM | -5.51 ± 1.6
33.0458 µM | -4.96 ± 1.7
104.5 µM | -4.42 ± 1.1

[N-]=[N+]=[N-] [Sodium azide]
Details | LDH release cytotoxicity [%]
0.03162 µM | -0.587 ± 0.19
0.1 µM | -0.947 ± 0.078
0.3162278 µM | -1.17 ± 1.3
1 µM | -1.29 ± 0.45
3.16228 µM | -1.23 ± 0.56
10 µM | -0.668 ± 0.061
31.6228 µM | -0.413 ± 0.77
100 µM | 7.38 ± 1.2

NC(=O)O [Ammonium carbamate]
Details | LDH release cytotoxicity [%]
0.031623 µM | -0.98 ± 0.56
0.1 µM | -2.14 ± 1.1
0.316228 µM | -3.38 ± 0.37
1 µM | -2.11 ± 1.4
3.16228 µM | -2.31 ± 0.54
10 µM | -1.92 ± 0.74
31.6228 µM | -0.516 ± 0.34
100 µM | 0.311 ± 0.094

CCCCCCCCCCCCCCCC [Hexadecane]
Details | LDH release cytotoxicity [%]
0.03162 µM | -0.113 ± 0.57
0.1 µM | -0.43 ± 0.69
0.3162278 µM | -1.34 ± 0.2
1 µM | -1.31 ± 0.45
3.16228 µM | -0.091 ± 0.79
10 µM | -0.203 ± 0.97
31.6228 µM | 0.166 ± 0.85
100 µM | -0.385 ± 0.52

CC(C)(OOC(C)(C)c1ccccc1)c1ccccc1 [Dicumyl peroxide]
Details | LDH release cytotoxicity [%]
0.03162 µM | -3.28 ± 0.56
0.1 µM | -3.3 ± 0.54
0.3162278 µM | -1.36 ± 0.58
1 µM | -1.54 ± 1
3.16228 µM | -0.973 ± 1.9
10 µM | -1.43 ± 0.79
31.6228 µM | -0.756 ± 0.26
100 µM | -0.201 ± 1.3

OCCOc1ccccc1 [2-Phenoxyethanol]
Details | LDH release cytotoxicity [%]
0.03162 µM | -0.138 ± 0.14
0.1 µM | -0.772 ± 0.68
0.3162278 µM | -1.12 ± 0.39
1 µM | -1.13 ± 0.53
3.16228 µM | -1.12 ± 0.78
10 µM | -1.27 ± 0.29
31.6228 µM | -0.22 ± 0.34
100 µM | 0.632 ± 1.1

c1ccc(OP(Oc2ccccc2)Oc2ccccc2)cc1 [Triphenyl phosphite]
Details | LDH release cytotoxicity [%]
0.03162 µM | -1.51 ± 2.2
0.1 µM | -1.17 ± 0.097
0.3162278 µM | -1.23 ± 0.038
1 µM | -1.46 ± 0.046
3.16228 µM | -0.429 ± 0.71
10 µM | -1.22 ± 0.2
31.6228 µM | -1.26 ± 0.45
100 µM | 1.56 ± 0.67

O=C(O)Cc1cc(I)c(Oc2cc(I)c(O)c(I)c2)c(I)c1 [Tetrac]
Details | LDH release cytotoxicity [%]
0.0211873 µM | 0.0963 ± 1.1
0.067 µM | -0.0291 ± 0.51
0.211873 µM | 0.0359 ± 0.7
0.67 µM | 0.258 ± 1.1
2.11873 µM | 1.04 ± 0.39
6.7 µM | 0.279 ± 0.69
21.1873 µM | -0.194 ± 0.92
67 µM | 34 ± 0.74

CC(C1CC1)C(O)(Cn1cncn1)c1ccc(Cl)cc1 (centres undefined) [Cyproconazole]
Details | LDH release cytotoxicity [%]
0.0314647 µM | -2.83 ± 0.84
0.0995 µM | -2.41 ± 1.4
0.3146466 µM | -3.23 ± 0.48
0.995 µM | -3.32 ± 0.63
3.14647 µM | -3.1 ± 0.6
9.95 µM | -2.59 ± 0.26
31.4647 µM | -2.12 ± 1.1
99.5 µM | 6.32 ± 1.1
